Data: patent publication US20100196355A1, “Immunophilin Ligands and Methods for Modulating Immunophilin and Calcium Channel Activity” (Wyeth, priority 2007, published 2010)

What was measured:
His6-tagged FKBP52 = target: T1, His6-tagged FKBP52 (Homo sapiens, UniProt Q02790); assay: [3H]-FK506 binding on Ni-chelated FLASH plate
T1 construct: made in house
T1 sequence (Q02790 1-459): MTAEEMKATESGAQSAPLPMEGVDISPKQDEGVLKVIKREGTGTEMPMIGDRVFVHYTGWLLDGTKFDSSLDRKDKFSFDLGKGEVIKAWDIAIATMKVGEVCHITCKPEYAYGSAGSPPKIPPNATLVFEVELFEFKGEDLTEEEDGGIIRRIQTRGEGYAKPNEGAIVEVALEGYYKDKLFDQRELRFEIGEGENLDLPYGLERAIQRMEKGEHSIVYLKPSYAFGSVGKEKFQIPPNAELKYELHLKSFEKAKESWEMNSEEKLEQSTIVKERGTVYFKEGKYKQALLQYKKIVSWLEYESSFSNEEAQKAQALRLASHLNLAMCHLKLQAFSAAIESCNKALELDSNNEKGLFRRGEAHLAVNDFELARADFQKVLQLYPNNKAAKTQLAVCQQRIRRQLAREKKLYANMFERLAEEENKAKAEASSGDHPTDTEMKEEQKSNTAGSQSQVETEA
Method: Reactions were carried out in triplicate at 25° C. for 30 min. Kd were calculated using methods described by Carreras (Anal. Biochem. 298, 57-61 (2001)).

[1] = tested on: rat cortical neuron cultures; assay: Transcriptional profiling of cortical neuron cultures; assay type: cell-based; conditions: 10 μM
Method: Cortical neuron cultures were prepared from E16 rat embryos. After plating for 24 hrs, cultures were treated with 10 μM immunophilin ligands and the corresponding vehicle. After treatment for 4 hrs, 12 hrs, 24 hrs and 48 hrs, cells were lysed. Total RNA from each sample was extracted with the RNEASY® Mini Kit (QIAGEN®). Double stranded cDNA was synthesized from 2 μg of each RNA sample using the […]® System (INVITROGEN®), purified, transcribed in vitro to prepare biotinylated cRNA using T7 RNA polymerase in the presence of biotin labeled UTP and CTP. The fragmented cRNAs were hybridized to a Rat Genome 230 2.0 […]® (AFFYMETRIX®, Santa Clara, Calif.) as recommended by the manufacturer. Hybridized arrays were stained according to manufacture protocols on a Fluidics Station 450 and subsequently scanned on an AFFYMETRIX® scanner 3000. The raw data was generated using AFFYMETRIX® MAS 5.0 Software. Transcriptional profiling data were analyzed in Ingenuity.

## CO[C@H]1C[C@@H]2CC[C@@H](C)[C@@](O)(O2)C(=O)C(=O)N2CCCCC2C(=O)O[C@H]([C@H](C)C[C@@H]2CC[C@@H](O)[C@H](OC)C2)CC(=O)[C@H](C)/C=C(\C)[C@@H](O)[C@@H](OC)C(=O)[C@H](C)C[C@H](C)C2CC[C@H](/C=C/1C)ON2c1ccccc1 (stereo partly drawn) [Rapamycin analogue II, 9,27-dihydroxy-3-{2-[4-hydroxy-3-methoxycyclohexyl]-1-methylethyl}-10,21-dimethoxy-6,8,12,14,20,26-hexamethyl-37-phenyl-4,9,10,12,13,14,15,16,17,18,21,22,23,24,25,26,27,32,33,34,34a-henicosahydro-3H-23,27-epoxy-18,15-(epoxyimino)pyrido[2,1-c][1,4]oxazacyclohentriacontine-1,5,11,28,29(6H, 31H)-pentone]
His6-tagged FKBP52
  Kd: 0.48 ± 0.04 nM
[1]; ACTA1
  fold change vs DMSO, ACTA1: −1.6 fold
[1]; ACTA2
  fold change vs DMSO, ACTA2: 1.37 fold
[1]; AKAP5
  fold change vs DMSO, AKAP5: −1.5 fold
[1]; ASPH
  fold change vs DMSO, ASPH: −3.27 fold
[1]; ATP2A2
  fold change vs DMSO, ATP2A2: 2 fold
[1]; ATP2B1
  fold change vs DMSO, ATP2B1: 1.81 fold
[1]; ATP2B3
  fold change vs DMSO, ATP2B3: −1.45 fold
[1]; ATP2C1
  fold change vs DMSO, ATP2C1: −1.32 fold
[1]; CABIN1
  fold change vs DMSO, CABIN1: 1.34 fold
[1]; CACNA1B
  fold change vs DMSO, CACNA1B: −1.45 fold
[1]; CACNA1C
  fold change vs DMSO, CACNA1C: 1.82 fold
[1]; CACNA1D
  fold change vs DMSO, CACNA1D: −1.28 fold
[1]; CACNA2D1
  fold change vs DMSO, CACNA2D1: 5.73 fold
[1]; CACNB1
  fold change vs DMSO, CACNB1: −1.14 fold
[1]; CACNG2
  fold change vs DMSO, CACNG2: −2 fold
[1]; CACNG3
  fold change vs DMSO, CACNG3: −2.46 fold
[1]; CALM1
  fold change vs DMSO, CALM1: −1.63 fold
[1]; CALM2
  fold change vs DMSO, CALM2: −1.33 fold
[1]; CALM3
  fold change vs DMSO, CALM3: −1.52 fold
[1]; CALR
  fold change vs DMSO, CALR: 1.19 fold
[1]; CAMK1
  fold change vs DMSO, CAMK1: −1.43 fold
[1]; CAMK1G
  fold change vs DMSO, CAMK1G: −2.26 fold
[1]; CAMK2A
  fold change vs DMSO, CAMK2A: −4.13 fold
[1]; CAMK2B
  fold change vs DMSO, CAMK2B: −1.88 fold
[1]; CAMK2D
  fold change vs DMSO, CAMK2D: −1.48 fold
[1]; CAMK4
  fold change vs DMSO, CAMK4: −1.33 fold
[1]; CHP
  fold change vs DMSO, CHP: 1.54 fold
[1]; CREBBP
  fold change vs DMSO, CREBBP: 5.84 fold
[1]; CYP27B1
  fold change vs DMSO, CYP27B1: −1.38 fold
[1]; DHCR7
  fold change vs DMSO, DHCR7: 1.73 fold
[1]; DSCR1
  fold change vs DMSO, DSCR1: −1.82 fold
[1]; DSCR1L1
  fold change vs DMSO, DSCR1L1: −4.73 fold
[1]; EBP
  fold change vs DMSO, EBP: 1.32 fold
[1]; FDFT1
  fold change vs DMSO, FDFT1: 1.89 fold
[1]; FDPS
  fold change vs DMSO, FDPS: 2.07 fold
[1]; GRIA1
  fold change vs DMSO, GRIA1: −2.16 fold
[1]; GRIA2
  fold change vs DMSO, GRIA2: 2.71 fold
[1]; GRIN1
  fold change vs DMSO, GRIN1: −2.8 fold
[1]; GRIN2B
  fold change vs DMSO, GRIN2B: −1.57 fold
[1]; GRIN3A
  fold change vs DMSO, GRIN3A: −2.94 fold
[1]; GRINA
  fold change vs DMSO, GRINA: −1.2 fold
[1]; HDAC5
  fold change vs DMSO, HDAC5: 1.8 fold
[1]; HDAC6
  fold change vs DMSO, HDAC6: −1.13 fold
[1]; HDAC7A
  fold change vs DMSO, HDAC7A: 1.27 fold
[1]; HMGCR
  fold change vs DMSO, HMGCR: 2.26 fold
[1]; HTR3A
  fold change vs DMSO, HTR3A: −1.64 fold
[1]; IDI1
  fold change vs DMSO, IDI1: 2.85 fold
[1]; ITPR3
  fold change vs DMSO, ITPR3: −1.93 fold
[1]; LSS
  fold change vs DMSO, LSS: 13.19 fold
[1]; MAPK1
  fold change vs DMSO, MAPK1: 1.38 fold
[1]; MAPK3
  fold change vs DMSO, MAPK3: −1.19 fold
[1]; MVD
  fold change vs DMSO, MVD: 1.81 fold
[1]; MVK
  fold change vs DMSO, MVK: 1.6 fold
[1]; MYH1
  fold change vs DMSO, MYH1: −2.17 fold
[1]; MYH6
  fold change vs DMSO, MYH6: −5.93 fold
[1]; MYH7
  fold change vs DMSO, MYH7: −5.88 fold
[1]; MYL6B
  fold change vs DMSO, MYL6B: −1.68 fold
[1]; NQO1
  fold change vs DMSO, NQO1: 1.64 fold
[1]; PMVK
  fold change vs DMSO, PMVK: 1.25 fold
[1]; PPP3CB
  fold change vs DMSO, PPP3CB: −1.27 fold
[1]; PPP3CC
  fold change vs DMSO, PPP3CC: −1.27 fold
[1]; PPP3R1
  fold change vs DMSO, PPP3R1: −1.44 fold
[1]; PRKAG1
  fold change vs DMSO, PRKAG1: −1.24 fold
[1]; PRKAR1A
  fold change vs DMSO, PRKAR1A: −1.1 fold
[1]; PRKAR1B
  fold change vs DMSO, PRKAR1B: −3.18 fold
[1]; PRKAR2A
  fold change vs DMSO, PRKAR2A: −1.23 fold
[1]; PRKAR2B
  fold change vs DMSO, PRKAR2B: −1.5 fold
[1]; RAP1B
  fold change vs DMSO, RAP1B: −1.33 fold
[1]; SC5DL
  fold change vs DMSO, SC5DL: 1.94 fold
[1]; SQLE
  fold change vs DMSO, SQLE: 1.9 fold
[1]; TPM1
  fold change vs DMSO, TPM1: −2.83 fold
[1]; TPM3
  fold change vs DMSO, TPM3: −1.99 fold
[1]; TRPC1
  fold change vs DMSO, TRPC1: −1.08 fold
[1]; TRPC3
  fold change vs DMSO, TRPC3: −1.95 fold
[1]; TRPC4
  fold change vs DMSO, TRPC4: −5.42 fold
[1]; TRPV6
  fold change vs DMSO, TRPV6: 1.73 fold
[1]; plasminogen activator (PLAU)
  fold change, PLAU: −10 fold
